For 13 compounds, IC50 results are on record in patent publication US8669256B2, “Substituted thieno[2,3-b]pyrazine compounds as modulators of B-Raf kinase activity” (Merck Sharp & Dohme B.V., priority 2010, dated 2014).

T1 sequence (P15056 416-766, stated change not applied): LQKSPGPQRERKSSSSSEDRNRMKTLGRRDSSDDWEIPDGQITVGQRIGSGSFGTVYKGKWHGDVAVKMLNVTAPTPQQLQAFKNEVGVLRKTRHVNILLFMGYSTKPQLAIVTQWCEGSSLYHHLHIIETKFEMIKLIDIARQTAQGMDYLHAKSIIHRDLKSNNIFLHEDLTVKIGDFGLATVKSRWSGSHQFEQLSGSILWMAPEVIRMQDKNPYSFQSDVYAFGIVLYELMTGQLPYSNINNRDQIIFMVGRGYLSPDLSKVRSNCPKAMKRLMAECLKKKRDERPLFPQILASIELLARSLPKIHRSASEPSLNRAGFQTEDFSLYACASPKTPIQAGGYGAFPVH

The first experiment addresses T1, GST-tagged human recombinant active B-Raf (Δ1-415) (Homo sapiens, UniProt P15056).
T1 construct: GST; purchased Upstate/Millipore
Put plainly: B-Raf kinase activity, IMAP coupled assay (B-Raf/MEK1/ERK2, fluorescence polarization). The class given is biochemical.
Settings: not given
Excerpt: (§1) In another assay the B-Raf kinase activity can be determined by using an IMAP assay (Immobilized Metal Assay for Phosphochemicals-based coupled assay). IMAP is a homogeneous fluorescence polarization (FP) assay based on affinity capture of phosphorylated peptide substrates. IMAP uses fluorescein-labeled peptide substrates that, upon phosphorylation by a protein kinase, bind to so called IMAP nanoparticles, which are derivatized with trivalent metal complexes. Such binding causes a change in the rate of the molecular motion of the peptide, and results in an increase in the FP value observed for the fluorescein label attached to the substrate peptide. In such an assay, B-Raf phosphorylates unactive MEK1. The phosphorylated MEK1 is capable of phosphorylating ERK2, which subsequently phosphorylates the fluorescein-labeled peptide substrate.
Determination of B-Raf Kinase Activity using an IMAP Assay
as §1, with “Inhibition of” for “In another assay the”, “was measured” for “can be determined by”, “Immobilized” for “IMAP assay (Immobilized”, “assay (IMAP).” for “assay).”, “this” for “such an”
Enzymes, substrate and ATP were diluted at all steps in Kinase Reaction buffer (10 mM Tris-HCl, 10 mM MgCl2, 0.01% Tween-20, 0.05% NaN3 pH 7.2, 1 mM DTT). The final volume at the kinase reaction step of the assay in the 384-well plate was 20 μl. The concentrations within brackets are final concentrations in the assay. B-Raf (GST-tagged human recombinant active B-Raf (Δ1-415), Upstate/Millipore; 0.2 U/ml) was pre-incubated with compounds or DMSO (1% final concentration) for 60 minutes at room temperature in the dark. Thereafter, MEK 1 (GST-tagged human recombinant unactive MEK1 (full-length); 64 ng/ml), ERK2 (GST-tagged human recombinant unactive ERK2 (full-length); 600 ng/ml), peptide substrate (Erktide, Molecular Devices; 50 nM) and ATP (50 μM) were added to the wells and the mix was incubated for another 60 minutes at 30° C. in the dark. Then, IMAP progressive binding buffer (75% 1× buffer A, 25% 1× buffer B, 1:900 Progressive Binding Reagent; Molecular Devices) was added followed by an incubation step of 60 minutes at room temperature in the dark. Finally, the FP signal was read on an Envision Multilabel reader (Perkin Elmer).
On the technique in general: Fluorescence polarisation rises when a labelled molecule tumbles more slowly, as on binding a larger partner.
For orientation: IC50 means the midpoint of a concentration-inhibition curve. Regarding `Cc1ccc(NC(=O)c2cccc(C(C)(C)C#N)c2)cc1/N=C(\C#N)c1cc2nccnc2s1` [Example 56, (E)-N-(5-(3-(2-cyanopropan-2-yl)benzamido)-2-methylphenyl)thieno[2,3-b]pyrazine-6-carbimidoyl cyanide], the IC50 was under 100 nM.

Staying with this experiment, now noted: bounds also given as pIC50 (>6, >7, >8); 60 min pre-incubation with compound, ATP 50 μM; read-out: IC50, B-Raf IMAP assay.
As for `Cc1ccc(NC(=O)c2cccc(C(C)(C)C#N)c2)cc1NC(=O)c1cc2nc(Cl)cnc2s1` [Example 12, 2-chloro-N-(5-(3-(2-cyanopropan-2-yl)benzamido)-2-methylphenyl)thieno[2,3-b]pyrazine-6-carboxamide], the IC50 was under 100 nM.
Same read-out and setting: in the case of `Cc1ccc(NC(=O)c2cccc(C(C)(C)C#N)c2)cc1NC(=O)c1cc2nc(-c3cncnc3)cnc2s1` [Example 22, N-(5-(3-(2-cyanopropan-2-yl)benzamido)-2-methylphenyl)-2-(pyrimidin-5-yl)thieno[2,3-b]pyrazine-6-carboxamide] it was under 10 nM; in that of `Cc1ccc(NC(=O)c2cccc(C(C)(C)C#N)c2)cc1NC(=O)c1cc2nc(-c3cnc(N(C)C)nc3)cnc2s1` [Example 23, N-(5-(3-(2-cyanopropan-2-yl)benzamido)-2-methylphenyl)-2-(2-(dimethylamino)pyrimidin-5-yl)thieno[2,3-b]pyrazine-6-carboxamide], under 100 nM; in that of `Cc1ccc(NC(=O)c2ccnc(N(C)C)c2)cc1NC(=O)c1cc2nccnc2s1` [Example 25, N-(5-(2-(dimethylamino)isonicotinamido)-2-methylphenyl)thieno[2,3-b]pyrazine-6-carboxamide], under 100 nM.
The same measure, in the same setting: in the case of `Cc1ccc(NC(=O)c2ccc(CN3CCN(C)CC3)c(C(F)(F)F)c2)cc1NC(=O)c1cc2nccnc2s1` [Example 33, N-(2-methyl-5-(4-((4-methylpiperazin-1-yl)methyl)-3-(trifluoromethyl)benzamido)phenyl)thieno[2,3-b]pyrazine-6-carboxamide] it was under 100 nM; in that of `Cc1ccc(NC(=O)c2cccc(-n3cccn3)c2)cc1NC(=O)c1cc2nccnc2s1` [Example 34, N-(5-(3-(1H-pyrazol-1-yl)benzamido)-2-methylphenyl)thieno[2,3-b]pyrazine-6-carboxamide], under 100 nM.
The same measure, in the same setting: the same measure for `Cc1ccc(NC(=O)c2cccc(C(C)(C)C#N)c2)cc1NCc1cc2nccnc2s1` [Example 47, 3-(2-cyanopropan-2-yl)-N-(4-methyl-3-(thieno[2,3-b]pyrazin-6-ylmethylamino)phenyl)benzamide]: under 100 nM.
`Cc1ccc(C(=O)Nc2cccc(C(F)(F)F)c2)cc1NC(=O)c1cc2nccnc2s1` [Example 48, N-(2-methyl-5-(3-(trifluoromethyl)phenylcarbamoyl)phenyl)-thieno[2,3-b]pyrazine-6-carboxamide]: the IC50 was under 100 nM.
Same read-out and setting: in the case of `CC(C)(C#N)c1cccc(C(=O)Nc2ccc(C#N)c(NC(=O)c3cc4nccnc4s3)c2)c1` [Example 52, N-(2-cyano-5-(3-(2-cyanopropan-2-yl)benzamido)phenyl)thieno[2,3-b]pyrazine-6-carboxamide] it was under 100 nM; in that of `Cc1ccc(NC(=O)c2cccc(-c3ccsc3)c2)cc1NC(=O)c1cc2nccnc2s1` [Example 57, N-(2-methyl-5-(3-(thiophen-3-yl)benzamido)phenyl)thieno[2,3-b]pyrazine-6-carboxamide], under 100 nM.
Same read-out and setting: the same measure for `Cc1ccc(NC(=O)c2cccc(C(C)(C)C#N)c2)cc1NC(=O)c1cc2[nH]c(=O)cnc2s1` [Example 58, N-(5-(3-(2-cyanopropan-2-yl)benzamido)-2-methylphenyl)-2-oxo-1,2-dihydrothieno[2,3-b]pyrazine-6-carboxamide]: under 100 nM; for `Cc1ccc(NC(=O)c2cccc(C(C)(C)C#N)c2)cc1NC(=O)c1cc2ncc(N(C)C)nc2s1` [Example 60, N-(5-(3-(2-cyanopropan-2-yl)benzamido)-2-methylphenyl)-3-(dimethylamino)thieno[2,3-b]pyrazine-6-carboxamide]: under 10 nM.
